Literature values, collected in PubChem BioAssay AID1259409 (Chemical Carcinogenesis Research Information System (CCRIS), 2018).

Test system: rodent chemically induced tumor inhibition, incidence and multiplicity
Assay: CCRIS tumor inhibitor studies
Details: Route [Inhibitor]: ORAL

In the case of `C[N+](C)(C)CCO`, the “tumour outcome (control, treated, inhibition, significance)” value (Carcinogen: 3'-METHYL-4-DIMETHYLAMINOAZOBENZENE, 55-80-1, Dose [Inhibitor]: 0.1% IN DIET DAILY FOR 4 WK STARTING AFTER 4 WK OF CARCINOGEN TREATMENT (STUDY DURATION: 20 WK), Species: RAT, Target Tissue: Type of Lesion: LIVER: TUMOR, Dose [Carcinogen]: 0.064% IN DIET DAILY FOR 8 WK 4 WK BEFORE AND ANOTHER 4 WK AFTER AGENT TREATMENT, Promoter: NONE USED) is listed as 7/9 (78%), 9/12 (75%), 4%, not calculated, the “tumour outcome (control, treated, inhibition, significance)” value (Carcinogen: DIETHYLNITROSAMINE, 55-18-5, Dose [Inhibitor]: 0, 1% IN DIET BEGINNING 1 WK POST CARCINOGEN DOSE (STUDY DURATION: 52 WK), Species: MOUSE, Strain/Sex: C3H/MALE, Target Tissue: Type of Lesion: LIVER: ADENOMA, Dose [Carcinogen]: 150 MG/KG ONCE, Promoter: PHENOBARBITAL, 50-06-6) is listed as 16%, 11%, 31%, not calculated and the “tumour outcome (control, treated, inhibition, significance)” value (Carcinogen: DIETHYLNITROSAMINE, 55-18-5, Dose [Inhibitor]: 0, 1% IN DIET BEGINNING 1 WK POST CARCINOGEN DOSE (STUDY DURATION: 52 WK), Species: MOUSE, Strain/Sex: C3H/MALE, Target Tissue: Type of Lesion: LIVER: CARCINOMA, Dose [Carcinogen]: 150 MG/KG ONCE, Promoter: PHENOBARBITAL, 50-06-6) is listed as 74%, 72%, 3%, not calculated. For the same molecule, the “tumour outcome (control, treated, inhibition, significance)” value (Carcinogen: DIETHYLNITROSAMINE, 55-18-5, Dose [Inhibitor]: 0, 1% IN DIET BEGINNING 1 WK POST CARCINOGEN DOSE (STUDY DURATION: 52 WK), Species: MOUSE, Strain/Sex: C3H/MALE, Target Tissue: Type of Lesion: LUNG: ADENOMA OR ADENOCARCINOMA, Dose [Carcinogen]: 150 MG/KG ONCE, Promoter: NONE USED) was 6/14 (43%), 13/24 (54%), -26%, not calculated, the “tumour outcome (control, treated, inhibition, significance)” value (Carcinogen: DIETHYLNITROSAMINE, 55-18-5, Dose [Inhibitor]: 0, 1% IN DIET BEGINNING 1 WK POST CARCINOGEN DOSE (STUDY DURATION: 52 WK), Species: MOUSE, Strain/Sex: C3H/MALE, Target Tissue: Type of Lesion: LUNG: ADENOMA OR ADENOCARCINOMA, Dose [Carcinogen]: 150 MG/KG ONCE, Promoter: PHENOBARBITAL, 50-06-6) was 7/19 (37%), 4/18 (22%), 41%, not calculated and the “tumour outcome (control, treated, inhibition, significance)” value (Carcinogen: DIETHYLNITROSAMINE, 55-18-5, Dose [Inhibitor]: 0, 1% IN DIET BEGINNING 1 WK PRIOR TO POST CARCINOGEN DOSE (STUDY DURATION: 52 WK), Species: MOUSE, Strain/Sex: C3H/MALE, Target Tissue: Type of Lesion: LIVER: ADENOMA, Dose [Carcinogen]: 150 MG/KG ONCE, Promoter: NONE USED) was 14%, 21%, -50%, not calculated. The “tumour outcome (control, treated, inhibition, significance)” value (Carcinogen: ETHIONINE, 13073-35-3, Dose [Inhibitor]: 2.1 MMOL/100 G DIET DAILY FOR 8 MO ADMINISTERED SIMULTANEOUSLY WITH CARCINOGEN FOLLOWED BY 2 MO ON BASAL DIET (STUDY DUR, Species: RAT, Strain/Sex: WISTAR/MALE, FEMALE, Target Tissue: Type of Lesion: LIVER: CARCINOMA, Dose [Carcinogen]: 0.25% OF DIET DAILY FOR 8 MO, Promoter: NONE USED) was 9/10 (90%), 5/9 (56%), 38%, not calculated, the “tumour outcome (control, treated, inhibition, significance)” value (Carcinogen: ETHIONINE, 13073-35-3, Dose [Inhibitor]: 4.2 MMOL/100 G DIET DAILY FOR 8 MO ADMINISTERED SIMULTANEOUSLY WITH CARCINOGEN FOLLOWED BY 4 MO ON BASAL DIET (STUDY DUR, Species: RAT, Strain/Sex: WISTAR/MALE, Target Tissue: Type of Lesion: LIVER: CARCINOMA, Dose [Carcinogen]: 0.25% OF DIET DAILY FOR 8 MO, Promoter: NONE USED) was 8/8 (100%), 6/10 (60%), 40%, not calculated and the “tumour outcome (control, treated, inhibition, significance)” value (Carcinogen: ETHIONINE, 13073-35-3, Dose [Inhibitor]: 5.7 MMOL/100 G DIET DAILY FOR 8 MO ADMINISTERED SIMULTANEOUSLY WITH CARCINOGEN FOLLOWED BY 4 MO ON BASAL DIET (STUDY DUR, Species: RAT, Strain/Sex: WISTAR/MALE, Target Tissue: Type of Lesion: LIVER: CARCINOMA, Dose [Carcinogen]: 0.25% OF DIET DAILY FOR 8 MO, Promoter: NONE USED) was 8/8 (100%), 7/10 (70%), 30%, not calculated.

In the case of `O=C(O)CNC(=O)c1ccccc1`, the “tumour outcome (control, treated, inhibition, significance)” value (Carcinogen: N-BUTYL-N-(4-HYDROXYBUTYL)NITROSAMINE, 3817-11-6, Dose [Inhibitor]: 5% DIET DAILY FOR 34 WK STARTING AT COMPLETION OF CARCINOGEN TREATMENT (STUDY DURATION: 38 WK), Species: RAT, Strain/Sex: F344/MALE, Target Tissue: Type of Lesion: URINARY BLADDER: PAPILLOMA, Dose [Carcinogen]: 0.01% IN DRINKING WATER FOR 4 WK, Promoter: NONE USED) is given as 33%, 23%, 30%, not significant.
